Reference: patent US12673944B2, “Compounds having inhibitory activity against glucosylceramide synthase or pharmaceutically acceptable salt thereof, processes for preparing the same, and pharmaceutical compositions comprising the same” (YUHAN CORPORATION, priority 2019, dated 2026)

How the values were obtained:
[1] = test system: GM1 production in Jurkat cells; assay: cells; format: cell-based; details: Homo sapiens, Jurkat, 72 h
[2] = target: T1, glucosylceramide synthase (GCS) (Homo sapiens, UniProt Q16739); assay: GCS enzyme inhibition assay (A549 cell lysate, NBD C6-ceramide, HPLC fluorescence); format: biochemical; details: inhibitory activity against GCS, 37° C., 90 minutes
T1 construct: The obtained supernatant was used; host or cells: A549 cells (lysate supernatant after sonication)
T1 sequence (Q16739 1-394): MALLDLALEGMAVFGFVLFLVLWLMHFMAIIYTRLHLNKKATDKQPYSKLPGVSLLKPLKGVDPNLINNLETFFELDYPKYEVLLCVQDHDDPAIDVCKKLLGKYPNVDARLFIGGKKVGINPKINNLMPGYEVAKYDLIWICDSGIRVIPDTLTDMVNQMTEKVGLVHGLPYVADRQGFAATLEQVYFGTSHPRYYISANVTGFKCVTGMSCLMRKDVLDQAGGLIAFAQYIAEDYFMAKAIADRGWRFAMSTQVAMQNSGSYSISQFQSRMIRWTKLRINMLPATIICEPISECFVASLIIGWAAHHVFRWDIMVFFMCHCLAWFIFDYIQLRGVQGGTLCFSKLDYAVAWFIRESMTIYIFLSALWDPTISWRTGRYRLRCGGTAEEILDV
Method: Ibiglustat, known as a GCS inhibitor, was used as a control.
After the cells attached to the culture dish were washed with phosphate buffered saline (PBS), the cells were scraped off with a cell scraper and then centrifuged (4000 rpm, 3 min, 4° C.) to collect the cells in a 50 ml tube. The cell pellets were suspended in a lysis buffer (50 mM HEPES, pH 7.3, containing 1× the protease/phosphatase inhibitor cocktail), lysed by sonication, and then the lysate was centrifuged (13000 rpm, 10 min, 4° C.). The obtained supernatant was used for the quantitative analysis of proteins. The amount of proteins was measured using the BCA protein assay kit, using bovine serum albumin as a standard.
Enzymatic reactions were initiated by sequentially adding the following reaction materials to a 96 deep-well plate. Thereafter, the enzymatic reactions were performed at 37° C. for 90 minutes.
The enzymatic reactions were stopped by adding 100 μl of chloroform/methanol (2:1, v/v). After vortexing for 15 seconds, each mixture was centrifuged (4000 rpm, 10 min, 18° C.). The lower layer (50 μl) was transferred to a new 96 deep-well plate and dried with a reduced concentrator.
Data analysis was performed by the following equations. % Area(Sample)=Area(GlcCer)/[Area(Cer)+Area(GlcCer)]×100 % GCS activity=[Area(Sample)−Area(ibiglustat)]/[Area(DMSO)−Area(ibiglustat)]×100

Q: For `O=C(NC1CCOc2cc(-c3ccc(OC(F)F)cc3)ccc21)O[C@@H]1CN2CCC1CC2` (stereo partly drawn) [Example 32, (S)-quinuclidin-3-yl (7-(4-(difluoromethoxy)phenyl)chroman-4-yl)carbamate], which IC50 [1] is on record?
A: 48.6 nM

Q: What about the IC50 [2] of the same molecule?
A: 3.34 nM

Q: What does the source list for `O=C(NC1CCOc2cc(-c3ccc(F)c(C(F)(F)F)c3)ccc21)O[C@@H]1CN2CCC1CC2` (stereo partly drawn) [Example 33, (S)-quinuclidin-3-yl (7-(4-fluoro-3-(trifluoromethyl)phenyl)chroman-4-yl)carbamate]?
A: IC50 [1]: 10.8 nM; IC50 [2]: 1.43 nM

Q: `O=C(NC1CCOc2cc(-c3cc(Cl)cc(C(F)(F)F)c3)ccc21)O[C@@H]1CN2CCC1CC2` (stereo partly drawn) [Example 34, (S)-quinuclidin-3-yl (7-(3-chloro-5-(trifluoromethyl)phenyl)chroman-4-yl)carbamate] was tested. Which IC50 [1] did it give?
A: 5.97 nM

Q: What about the IC50 [2] of the same molecule?
A: 1.97 nM

Q: Which results are given for `O=C(NC1CCOc2cc(-c3ccc(C4CC4)cc3)ccc21)O[C@@H]1CN2CCC1CC2` (stereo partly drawn) [Example 35, (S)-quinuclidin-3-yl (7-(4-cyclopropylphenyl)chroman-4-yl)carbamate]?
A: IC50 [1]: 5.44 nM; IC50 [2]: 2.77 nM

Q: Which results are given for `O=C(NC1CCOc2cc(-c3ccc4c(c3)OC(F)(F)O4)ccc21)O[C@@H]1CN2CCC1CC2` (stereo partly drawn) [Example 36, (S)-quinuclidin-3-yl (7-(2,2-difluorobenzo[d][1,3]dioxol-5-yl)chroman-4-yl)carbamate]?
A: IC50 [1]: 11.1 nM; IC50 [2]: 1.53 nM

Q: For `O=C(NC1CCOc2cc(-c3ccc4c(c3)OCCO4)ccc21)O[C@@H]1CN2CCC1CC2` (stereo partly drawn) [Example 37, (S)-quinuclidin-3-yl (7-(2,3-dihydrobenzo[b][1,4]dioxin-6-yl)chroman-4-yl)carbamate], which IC50 [1] is on record?
A: 9.47 nM

Q: What about the IC50 [2] of the same molecule?
A: 1.4 nM

Q: For `O=C(NC1CCOc2cc(C3=CCCO3)ccc21)O[C@@H]1CN2CCC1CC2` (stereo partly drawn) [Example 38, (S)-quinuclidin-3-yl (7-(2,3-dihydrofuran-5-yl)chroman-4-yl)carbamate], which IC50 [1] is on record?
A: 14.5 nM

Q: What about the IC50 [2] of the same molecule?
A: 3.02 nM

Q: Which IC50 [1] does the source give for `N#Cc1cccc(-c2ccc3c(c2)OCCC3NC(=O)O[C@@H]2CN3CCC2CC3)c1` (stereo partly drawn) [Example 39, (S)-quinuclidin-3-yl (7-(3-cyanophenyl)chroman-4-yl)carbamate] here?
A: 7.73 nM

Q: What about the IC50 [2] of the same molecule?
A: 1.82 nM

Q: How did the IC50 [1] turn out when `N#Cc1ccccc1-c1ccc2c(c1)OCCC2NC(=O)O[C@@H]1CN2CCC1CC2` (stereo partly drawn) [Example 40, (S)-quinuclidin-3-yl (7-(2-cyanophenyl)chroman-4-yl)carbamate] was run?
A: 19.7 nM

Q: What about the IC50 [2] of the same molecule?
A: 3.78 nM

Q: Which results are given for `CN(C)c1cccc(-c2ccc3c(c2)OCCC3NC(=O)O[C@@H]2CN3CCC2CC3)c1` (stereo partly drawn) [Example 41, (S)-quinuclidin-3-yl (7-(3-(dimethylamino)phenyl)chroman-4-yl)carbamate]?
A: IC50 [1]: 0.45 nM; IC50 [2]: 0.52 nM

Q: `O=C(NC1CCOc2cc(-c3cc4ccccc4s3)ccc21)O[C@@H]1CN2CCC1CC2` (stereo partly drawn) [Example 42, (S)-quinuclidin-3-yl (7-(benzo[b]thiophen-2-yl)chroman-4-yl)carbamate] was tested. Which IC50 [1] did it give?
A: 34.1 nM

Q: What about the IC50 [2] of the same molecule?
A: 14 nM

Q: Which results are given for `O=C(NC1CCOc2cc(-c3coc4ccccc34)ccc21)O[C@@H]1CN2CCC1CC2` (stereo partly drawn) [Example 43, (S)-quinuclidin-3-yl (7-(benzofuran-3-yl)chroman-4-yl)carbamate]?
A: IC50 [1]: 0.02 nM; IC50 [2]: 0.58 nM

Q: With `O=C(NC1CCOc2cc(-c3cc4ccccc4o3)ccc21)O[C@@H]1CN2CCC1CC2` (stereo partly drawn) [Example 44, (S)-quinuclidin-3-yl (7-(benzofuran-2-yl)chroman-4-yl)carbamate] as the molecule, how does the IC50 [1] read?
A: 15.6 nM

Q: And the IC50 [2]?
A: 9.17 nM

Q: Which results are given for `O=C(NC1CCOc2cc(-c3ccc4cc[nH]c4c3)ccc21)O[C@@H]1CN2CCC1CC2` (stereo partly drawn) [Example 45, (S)-quinuclidin-3-yl (7-(1H-indol-6-yl)chroman-4-yl)carbamate]?
A: IC50 [1]: 26.2 nM; IC50 [2]: 4.13 nM

Q: For `O=C(NC1CCOc2cc(-c3c[nH]c4ccccc34)ccc21)O[C@@H]1CN2CCC1CC2` (stereo partly drawn) [Example 46, (S)-quinuclidin-3-yl (7-(1H-indol-3-yl)chroman-4-yl)carbamate], which IC50 [1] is on record?
A: 20.5 nM

Q: And the IC50 [2]?
A: 4.08 nM

Q: For `O=C(NC1CCOc2cc(-c3cccc4cc[nH]c34)ccc21)O[C@@H]1CN2CCC1CC2` (stereo partly drawn) [Example 47, (S)-quinuclidin-3-yl (7-(1H-indol-7-yl)chroman-4-yl)carbamate], which IC50 [1] is on record?
A: 10.5 nM

Q: And the IC50 [2]?
A: 2.55 nM

Q: How did the IC50 [1] turn out when `O=C(NC1CCOc2cc(-c3cccc4[nH]ncc34)ccc21)O[C@@H]1CN2CCC1CC2` (stereo partly drawn) [Example 48, (S)-quinuclidin-3-yl (7-(1H-indazol-4-yl)chroman-4-yl)carbamate] was run?
A: 42 nM

Q: And the IC50 [2]?
A: 6.27 nM

Q: Which IC50 [1] does the source give for `O=C(NC1CCOc2cc(-c3cccc4cn[nH]c34)ccc21)O[C@@H]1CN2CCC1CC2` (stereo partly drawn) [Example 49, (S)-quinuclidin-3-yl (7-(1H-indazol-7-yl)chroman-4-yl)carbamate] here?
A: 12.3 nM

Q: What about the IC50 [2] of the same molecule?
A: 3.8 nM

Q: With `Cn1ncc2ccc(-c3ccc4c(c3)OCCC4NC(=O)O[C@@H]3CN4CCC3CC4)cc21` (stereo partly drawn) [Example 50, (S)-quinuclidin-3-yl (7-(1-methyl-1H-indazol-6-yl)chroman-4-yl)carbamate] as the molecule, how does the IC50 [1] read?
A: 25.9 nM

Q: And the IC50 [2]?
A: 3.98 nM

Q: With `Cn1ncc2c(-c3ccc4c(c3)OCCC4NC(=O)O[C@@H]3CN4CCC3CC4)cccc21` (stereo partly drawn) [Example 51, (S)-quinuclidin-3-yl (7-(1-methyl-1H-indazol-4-yl)chroman-4-yl)carbamate] as the molecule, how does the IC50 [1] read?
A: 4.99 nM

Q: What about the IC50 [2] of the same molecule?
A: 1.02 nM

Q: `Cn1c(-c2ccc3c(c2)OCCC3NC(=O)O[C@@H]2CN3CCC2CC3)cc2ccccc21` (stereo partly drawn) [Example 52, (S)-quinuclidin-3-yl (7-(1-methyl-1H-indol-2-yl)chroman-4-yl)carbamate] was tested. Which IC50 [1] did it give?
A: 24.8 nM

Q: And the IC50 [2]?
A: 7.06 nM

Q: What does the source list for `O=C(NC1CCOc2cc(-c3cncc4ccccc34)ccc21)O[C@@H]1CN2CCC1CC2` (stereo partly drawn) [Example 53, (S)-quinuclidin-3-yl (7-(isoquinolin-4-yl)chroman-4-yl)carbamate]?
A: IC50 [1]: 2.66 nM; IC50 [2]: 1.77 nM

Q: Which results are given for `O=C(NC1CCOc2cc(-c3cccc4cnccc34)ccc21)O[C@@H]1CN2CCC1CC2` (stereo partly drawn) [Example 54, (S)-quinuclidin-3-yl (7-(isoquinolin-5-yl)chroman-4-yl)carbamate]?
A: IC50 [1]: 14.1 nM; IC50 [2]: 2.14 nM

Q: `O=C(NC1CCOc2cc(-c3cnc4ccccc4c3)ccc21)O[C@@H]1CN2CCC1CC2` (stereo partly drawn) [Example 55, (S)-quinuclidin-3-yl (7-(quinolin-3-yl)chroman-4-yl)carbamate] was tested. Which IC50 [1] did it give?
A: 22.3 nM

Q: And the IC50 [2]?
A: 3.58 nM

Q: How did the IC50 [1] turn out when `O=C(NC1CCOc2cc(-c3cccc4cccnc34)ccc21)O[C@@H]1CN2CCC1CC2` (stereo partly drawn) [Example 56, (S)-quinuclidin-3-yl (7-(quinolin-8-yl)chroman-4-yl)carbamate] was run?
A: 6.03 nM

Q: What about the IC50 [2] of the same molecule?
A: 1.38 nM

Q: With `O=C(NC1CCOc2cc(-c3ccc4ccncc4c3)ccc21)O[C@@H]1CN2CCC1CC2` (stereo partly drawn) [Example 57, (S)-quinuclidin-3-yl (7-(isoquinolin-7-yl)chroman-4-yl)carbamate] as the molecule, how does the IC50 [1] read?
A: 36.6 nM

Q: And the IC50 [2]?
A: 3.52 nM

Q: Which results are given for `O=C(NC1CCOc2cc(-c3ccc4c(c3)OCCCO4)ccc21)O[C@@H]1CN2CCC1CC2` (stereo partly drawn) [Example 58, (S)-quinuclidin-3-yl (7-(3,4-dihydro-2H-benzo[b][1,4]dioxepin-7-yl)chroman-4-yl)carbamate]?
A: IC50 [1]: 21.2 nM; IC50 [2]: 2 nM

Q: Which IC50 [1] does the source give for `O=C(NC1CCOc2cc(-c3cccc(-c4ccccc4)c3)ccc21)O[C@@H]1CN2CCC1CC2` (stereo partly drawn) [Example 59, (S)-quinuclidin-3-yl (7-([1,1′-biphenyl]-3-yl)chroman-4-yl)carbamate] here?
A: 2.22 nM

Q: What about the IC50 [2] of the same molecule?
A: 0.3 nM

Q: What does the source list for `O=C(NC1CCOc2cc(-c3cccc(S(=O)(=O)N4CCCC4)c3)ccc21)O[C@@H]1CN2CCC1CC2` (stereo partly drawn) [Example 60, (S)-quinuclidin-3-yl (7-(3-(pyrrolidin-1-ylsulfonyl)phenyl)chroman-4-yl)carbamate]?
A: IC50 [1]: 16.5 nM; IC50 [2]: 2.39 nM

Q: How did the IC50 [1] turn out when `O=C(NC1CCOc2cc(-c3ccc4c(c3)COC4)ccc21)O[C@@H]1CN2CCC1CC2` (stereo partly drawn) [Example 61, (S)-quinuclidin-3-yl (7-(1,3-dihydroisobenzofuran-5-yl)chroman-4-yl)carbamate] was run?
A: 40.1 nM

Q: What about the IC50 [2] of the same molecule?
A: 1.36 nM

Q: For `O=C(NC1CCOc2cc(-c3ccc4nsnc4c3)ccc21)O[C@@H]1CN2CCC1CC2` (stereo partly drawn) [Example 62, (S)-quinuclidin-3-yl (7-(benzo[c][1,2,5]thiadiazol-5-yl)chroman-4-yl)carbamate], which IC50 [1] is on record?
A: 21.2 nM

Q: And the IC50 [2]?
A: 1.03 nM

Q: With `CN1CCOc2cc(-c3ccc4c(c3)OCCC4NC(=O)O[C@@H]3CN4CCC3CC4)ccc21` (stereo partly drawn) [Example 63, (S)-quinuclidin-3-yl (7-(4-methyl-3,4-dihydro-2H-benzo[b][1,4]oxazin-7-yl)chroman-4-yl)carbamate] as the molecule, how does the IC50 [1] read?
A: 27 nM

Q: And the IC50 [2]?
A: 1.33 nM
